In general, IC50 refers to the concentration needed to halve the response being measured. What is called Dmax is the largest share of the target that was removed. Low values mean shallow degradation, high ones deep degradation.

Each structure is given as a SMILES string.

Data on three compounds can be found in US12310975B2, “Modulators of BCL6 proteolysis and associated methods of use” (Arvinas Operations, Inc., priority 2019, dated 2025).

In experiment [1] the target is T1, BCL6 (Homo sapiens (Human), UniProt P41182). Put plainly: BCL6 TR-FRET assay (BCL6-Avitag-Biotin / BCoR-Cy5 peptide). The format is binding. The settings on record: read-out: IC50. A digest of the protocol:
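TR-FRET displacement assay: biotinylated His-SUMO-BCL6-Avitag (2 nM) pre-incubated 30 min at room temperature with compound (12-point 3-fold titration), then BCoR-Cy5 peptide (100 nM) and Eu-streptavidin (2 nM) added. Buffer: 50 mM HEPES pH 7.5, 125 mM NaCl, 0.01% Triton X, glutathione or DTT, 0.03% BSA. Read after 2 h.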
Background: TR-FRET usually uses a lanthanide donor and a delayed reading to cut background.

Experiment [2] has as its target T1, BCL6. The experiment can be described thus: Immunofluorescence high content imaging of BCL6 degradation in T47D cells. Format: cell-based. The settings on record: T47D. A digest of the protocol: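 Following a 3-day incubation with serially diluted bifunctional compounds (final top 0.1 or 1 μM), T47D cells were PFA-fixed and immunostained for BCL6. Nuclear BCL6 signal was captured on a high-content imager.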

`CNC(=O)COc1cc2cc(Nc3nc(N4CCN(CC5CCC6(CC5)CN(c5c(F)ccc7c5C(=O)N(C5CCC(=O)NC5=O)C7=O)C6)CC4)ncc3Cl)ccc2n(C(C)C)c1=O` (stereo not drawn) [compound 539, 2-{[6-({5-chloro-2-[4-({2-[2-(2,6-dioxopiperidin-3-yl)-5-fluoro-1,3-dioxo-2,3-dihydro-1H-isoindol-4-yl]-2-azaspiro[3.5]nonan-7-yl}methyl)piperazin-1-yl]pyrimidin-4-yl}amino)-2-oxo-1-(propan-2-yl)-1,2-dihydroquinolin-3-yl]oxy}-N-methylacetamide]: the concentration for half-maximal inhibition (IC50) on BCL6 [1] was less than 10 nM. In addition, at BCL6 [2], the maximal degradation (Dmax) was in the range of 50 to 70%.
`CNC(=O)COc1cc2cc(Nc3nc(N4CCN(CC5CCC6(CC5)CN(c5cc(F)cc7c5C(=O)N(C5CCC(=O)NC5=O)C7=O)C6)CC4)ncc3Cl)ccc2n(C(C)C)c1=O` (stereo not drawn) [compound 540, 2-{[6-({5-chloro-2-[4-({2-[2-(2,6-dioxopiperidin-3-yl)-6-fluoro-1,3-dioxo-2,3-dihydro-1H-isoindol-4-yl]-2-azaspiro[3.5]nonan-7-yl}methyl)piperazin-1-yl]pyrimidin-4-yl}amino)-2-oxo-1-(propan-2-yl)-1,2-dihydroquinolin-3-yl]oxy}-N-methylacetamide]: the concentration for half-maximal inhibition (IC50) on BCL6 [1] is less than 10 nM. On BCL6 [2], this compound gave a Dmax of no less than 70%.
For `CNC(=O)COc1cc2cc(Nc3nc(N4CCN(CC5CCC6(CC5)CN(c5ccc(F)c7c5C(=O)N(C5CCC(=O)NC5=O)C7=O)C6)CC4)ncc3Cl)ccc2n(C(C)C)c1=O` (stereo not drawn) [compound 541, 2-{[6-({5-chloro-2-[4-({2-[2-(2,6-dioxopiperidin-3-yl)-7-fluoro-1,3-dioxo-2,3-dihydro-1H-isoindol-4-yl]-2-azaspiro[3.5]nonan-7-yl}methyl)piperazin-1-yl]pyrimidin-4-yl}amino)-2-oxo-1-(propan-2-yl)-1,2-dihydroquinolin-3-yl]oxy}-N-methylacetamide], the half-inhibitory concentration (IC50) at BCL6 [1] is less than 10 nM. At BCL6 [2], this compound showed a maximal degradation (Dmax) of no less than 70%.
